These results are taken from ChEMBL document CHEMBL1201862, “PubChem BioAssay data set” (2004).

Activity calls are given as the source filed them.

Test [1] in a line: HEp-2 cell cytotoxicity, dose response, cytotoxicity control for RSV inhibitor project, HTS (AID 2410). Format: functional. The note with it: human respiratory syncytial virus.
For test [2], the target named is T1, Replicative DNA helicase DnaB (Mycobacterium tuberculosis, UniProt P9WMR3).
T1 sequence (P9WMR3 whole entry): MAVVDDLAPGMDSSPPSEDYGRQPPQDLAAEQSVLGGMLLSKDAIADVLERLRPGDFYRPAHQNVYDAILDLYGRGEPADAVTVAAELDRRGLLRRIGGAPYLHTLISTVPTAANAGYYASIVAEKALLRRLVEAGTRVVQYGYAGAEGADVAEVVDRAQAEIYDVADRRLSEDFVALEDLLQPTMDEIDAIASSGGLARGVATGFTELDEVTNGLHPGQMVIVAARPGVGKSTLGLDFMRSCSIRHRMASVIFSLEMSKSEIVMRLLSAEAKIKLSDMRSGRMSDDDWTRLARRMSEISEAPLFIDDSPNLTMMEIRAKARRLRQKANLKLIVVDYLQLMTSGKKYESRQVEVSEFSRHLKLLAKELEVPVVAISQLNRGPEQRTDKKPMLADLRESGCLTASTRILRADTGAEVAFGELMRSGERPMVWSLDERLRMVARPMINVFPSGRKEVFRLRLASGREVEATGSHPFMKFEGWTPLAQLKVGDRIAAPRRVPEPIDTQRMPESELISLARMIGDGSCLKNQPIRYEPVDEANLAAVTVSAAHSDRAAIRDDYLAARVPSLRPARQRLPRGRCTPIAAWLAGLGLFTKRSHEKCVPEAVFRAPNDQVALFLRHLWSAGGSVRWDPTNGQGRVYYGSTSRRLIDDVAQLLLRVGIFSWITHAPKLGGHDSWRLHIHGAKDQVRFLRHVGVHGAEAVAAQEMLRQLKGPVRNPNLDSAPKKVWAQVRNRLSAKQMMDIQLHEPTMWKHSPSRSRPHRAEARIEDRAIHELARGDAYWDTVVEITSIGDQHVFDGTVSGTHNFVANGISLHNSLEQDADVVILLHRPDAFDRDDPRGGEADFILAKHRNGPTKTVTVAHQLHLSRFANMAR
Briefly: DnaB intein splicing inhibitors, dose response, biochemical, cell-free fluorescence (AID 449749). The format is functional.

The target of test [3] is T2, Protein RecA (Mycobacterium tuberculosis, UniProt P9WHJ3).
T2 sequence (P9WHJ3 whole entry): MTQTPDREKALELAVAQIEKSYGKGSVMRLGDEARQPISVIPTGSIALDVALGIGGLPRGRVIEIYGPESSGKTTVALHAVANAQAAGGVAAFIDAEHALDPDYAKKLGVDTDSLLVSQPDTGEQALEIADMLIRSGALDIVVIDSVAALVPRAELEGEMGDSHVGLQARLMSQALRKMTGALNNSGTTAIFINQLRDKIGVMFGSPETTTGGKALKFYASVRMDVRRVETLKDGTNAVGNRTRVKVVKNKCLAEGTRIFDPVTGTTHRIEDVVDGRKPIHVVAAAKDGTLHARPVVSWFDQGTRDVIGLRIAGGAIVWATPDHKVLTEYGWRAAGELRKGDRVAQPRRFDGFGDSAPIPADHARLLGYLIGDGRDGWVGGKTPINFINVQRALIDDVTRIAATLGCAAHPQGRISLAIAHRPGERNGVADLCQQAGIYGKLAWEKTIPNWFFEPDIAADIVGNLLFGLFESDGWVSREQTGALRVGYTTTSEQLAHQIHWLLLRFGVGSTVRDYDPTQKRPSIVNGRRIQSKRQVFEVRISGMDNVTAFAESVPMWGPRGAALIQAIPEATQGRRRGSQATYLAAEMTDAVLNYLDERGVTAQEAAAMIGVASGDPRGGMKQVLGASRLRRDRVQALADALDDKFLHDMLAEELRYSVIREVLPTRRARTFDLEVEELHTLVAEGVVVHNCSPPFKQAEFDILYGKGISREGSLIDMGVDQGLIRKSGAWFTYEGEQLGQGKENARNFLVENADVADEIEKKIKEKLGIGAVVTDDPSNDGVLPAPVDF
The experiment in a line: Fluorescence Cell-Free Homogeneous Dose Retest to Identify Inhibitors of RecA-Intein Splicing Activity. [Related pubchem assays (depositor defined):AID2097, AID2223, AID489010, AID492950]. Format: functional.

Test [4] concerns the target T3, Cytochrome P450 1A2 (Homo sapiens, UniProt P05177).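 Further: PubChem cytochrome P450 panel assay, CYP1A2 panel member.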
T3 sequence (P05177 whole entry): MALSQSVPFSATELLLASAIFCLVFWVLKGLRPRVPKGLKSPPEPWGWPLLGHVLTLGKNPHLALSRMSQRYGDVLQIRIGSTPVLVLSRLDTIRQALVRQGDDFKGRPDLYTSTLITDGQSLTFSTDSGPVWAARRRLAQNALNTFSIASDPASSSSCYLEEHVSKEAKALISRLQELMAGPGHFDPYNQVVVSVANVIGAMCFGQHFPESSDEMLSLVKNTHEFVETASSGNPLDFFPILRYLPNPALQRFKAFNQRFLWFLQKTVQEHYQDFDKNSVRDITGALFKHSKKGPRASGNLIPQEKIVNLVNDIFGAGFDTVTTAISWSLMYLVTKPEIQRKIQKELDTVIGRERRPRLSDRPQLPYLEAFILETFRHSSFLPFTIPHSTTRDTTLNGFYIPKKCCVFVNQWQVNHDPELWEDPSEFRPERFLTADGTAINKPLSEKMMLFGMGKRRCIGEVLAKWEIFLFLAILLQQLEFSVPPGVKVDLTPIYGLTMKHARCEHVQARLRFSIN

Test [5] has as its target Cytochrome P450 3A4 (Homo sapiens, UniProt P08684).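 Further: CYP3A4 tested as one member of a cytochrome P450 panel screen.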
Test [6] deals with Cytochrome P450 2D6 (Homo sapiens, UniProt P10635).
Cytochrome P450 2D6, sequence (P10635 whole entry): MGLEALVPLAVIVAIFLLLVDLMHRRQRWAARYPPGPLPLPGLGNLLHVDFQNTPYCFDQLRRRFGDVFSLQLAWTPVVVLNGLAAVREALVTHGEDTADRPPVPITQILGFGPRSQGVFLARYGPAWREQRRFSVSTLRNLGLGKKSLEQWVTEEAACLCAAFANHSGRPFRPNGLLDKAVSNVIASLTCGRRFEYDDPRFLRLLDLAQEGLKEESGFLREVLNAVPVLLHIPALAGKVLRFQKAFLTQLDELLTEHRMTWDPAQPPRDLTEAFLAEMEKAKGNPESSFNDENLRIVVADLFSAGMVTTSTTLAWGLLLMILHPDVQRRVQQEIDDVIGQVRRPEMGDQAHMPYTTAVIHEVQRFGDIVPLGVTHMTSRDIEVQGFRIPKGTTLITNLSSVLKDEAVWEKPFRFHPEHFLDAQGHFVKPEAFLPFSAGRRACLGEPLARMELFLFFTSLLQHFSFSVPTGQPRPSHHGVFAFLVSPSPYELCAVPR
Test [7] has as its target Cytochrome P450 2C19 (Homo sapiens, UniProt P33261). The experiment in a line: Cytochrome panel assay with activity outcomes. Panel member name: p450-cyp2c19 Compounds with AC50 equal or less than 10 uM are considered active. Format: functional. The note with it: read-out: AC50.
The nature of test [8]: cells. The format is functional, cell-based.
The target in test [9] is Cytochrome P450 2C9 (Homo sapiens, UniProt P11712).
Cytochrome P450 2C9, sequence (P11712 whole entry): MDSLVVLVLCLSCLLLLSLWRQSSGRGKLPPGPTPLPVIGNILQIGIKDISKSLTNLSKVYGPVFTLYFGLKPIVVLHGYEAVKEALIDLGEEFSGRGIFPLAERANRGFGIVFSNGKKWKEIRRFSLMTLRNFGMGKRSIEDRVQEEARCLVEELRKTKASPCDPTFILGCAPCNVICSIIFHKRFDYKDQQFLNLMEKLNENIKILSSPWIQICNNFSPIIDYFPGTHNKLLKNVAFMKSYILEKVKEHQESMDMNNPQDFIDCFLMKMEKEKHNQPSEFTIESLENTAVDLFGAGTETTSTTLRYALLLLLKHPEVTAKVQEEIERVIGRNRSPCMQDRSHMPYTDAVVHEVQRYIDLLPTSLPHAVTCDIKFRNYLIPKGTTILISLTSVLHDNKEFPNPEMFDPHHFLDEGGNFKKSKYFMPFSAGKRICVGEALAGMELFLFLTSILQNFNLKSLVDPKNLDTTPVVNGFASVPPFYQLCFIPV
Test [10] deals with T4, Streptokinase A (Streptococcus pyogenes serotype M1, UniProt P10520).
T4 sequence (P10520 whole entry): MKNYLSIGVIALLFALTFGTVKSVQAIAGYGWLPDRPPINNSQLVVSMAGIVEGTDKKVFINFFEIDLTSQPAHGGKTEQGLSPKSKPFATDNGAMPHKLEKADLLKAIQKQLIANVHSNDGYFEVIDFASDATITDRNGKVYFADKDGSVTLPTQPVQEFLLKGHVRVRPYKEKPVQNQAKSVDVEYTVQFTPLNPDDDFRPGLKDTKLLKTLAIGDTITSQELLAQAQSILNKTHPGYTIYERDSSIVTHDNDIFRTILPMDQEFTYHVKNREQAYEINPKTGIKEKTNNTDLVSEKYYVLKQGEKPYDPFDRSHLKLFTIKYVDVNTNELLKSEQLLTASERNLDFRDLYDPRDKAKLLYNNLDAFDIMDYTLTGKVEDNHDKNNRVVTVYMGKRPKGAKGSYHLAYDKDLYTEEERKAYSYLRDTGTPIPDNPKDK
The experiment in a line: S. pyogenes streptokinase expression inhibitors, potency, dose response, plasminogen activation absorbance, OD405 (AID 1914).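 Further: secreted streptokinase activity via plasminogen activation per viability signal from cell pellet.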 The format is functional, Streptococcus pyogenes M1 GAS.

Cytochrome P450 2C19, sequence (P33261 whole entry): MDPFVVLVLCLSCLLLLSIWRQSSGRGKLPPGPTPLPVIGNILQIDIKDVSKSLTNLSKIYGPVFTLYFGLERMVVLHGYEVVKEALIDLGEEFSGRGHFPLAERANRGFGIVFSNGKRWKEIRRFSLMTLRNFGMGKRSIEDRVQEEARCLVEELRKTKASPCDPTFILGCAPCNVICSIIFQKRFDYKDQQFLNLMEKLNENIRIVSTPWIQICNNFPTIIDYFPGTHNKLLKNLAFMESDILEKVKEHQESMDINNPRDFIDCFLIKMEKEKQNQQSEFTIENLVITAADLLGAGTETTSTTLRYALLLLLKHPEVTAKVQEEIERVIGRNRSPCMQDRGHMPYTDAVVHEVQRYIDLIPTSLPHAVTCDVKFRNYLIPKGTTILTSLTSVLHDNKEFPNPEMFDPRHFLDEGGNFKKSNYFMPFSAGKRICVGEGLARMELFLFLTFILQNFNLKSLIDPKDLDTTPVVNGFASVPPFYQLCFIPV
Cytochrome P450 3A4, sequence (P08684 whole entry): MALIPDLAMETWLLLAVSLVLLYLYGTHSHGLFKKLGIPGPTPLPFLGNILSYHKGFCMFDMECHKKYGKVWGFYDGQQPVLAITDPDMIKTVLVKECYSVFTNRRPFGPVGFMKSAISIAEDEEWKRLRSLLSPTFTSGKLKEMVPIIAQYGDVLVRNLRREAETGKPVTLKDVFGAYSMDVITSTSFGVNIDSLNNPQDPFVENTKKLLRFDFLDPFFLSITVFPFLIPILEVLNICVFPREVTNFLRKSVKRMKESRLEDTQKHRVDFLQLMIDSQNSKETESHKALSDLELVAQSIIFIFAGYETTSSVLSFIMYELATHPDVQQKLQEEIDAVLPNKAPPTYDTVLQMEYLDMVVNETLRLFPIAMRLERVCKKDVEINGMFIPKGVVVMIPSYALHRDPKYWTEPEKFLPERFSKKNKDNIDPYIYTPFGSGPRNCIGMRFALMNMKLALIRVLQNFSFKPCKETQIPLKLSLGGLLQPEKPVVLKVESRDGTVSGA

In general, CC50 refers to the concentration at which the toxic effect on the cells reaches its halfway point. With `Cc1cc(-n2nnc3ccccc32)nc2ccccc12`, in test [1], the CC50 is 19.1 µM (active).
For orientation: AC50 means the concentration at which the activity in the assay is half-maximal. For orientation: EC50 means the concentration that produces a half-maximal response. With `Cc1nn(-c2ccccc2)c2c1C(c1ccc(F)cc1)C(C#N)=C(N)O2` (stereo not drawn), in test [2], the concentration at half-maximal activity (AC50) is 3.55 µM (active). In addition, in [3], the EC50 was 2.93 µM (active).
In the case of `CC(=O)C1=C(O)[C@@H]2[C@@H]3c4c[nH]c5cccc(c45)C[C@@H]3C(C)(C)N2C1=O`, the AC50 in test [4] is 12.6 µM (inconclusive); in test [5] it was 10 µM (inconclusive); in test [6], 39.8 µM (inconclusive).
For `Cc1ncsc1C(=O)N1N=C2/C(=C/c3ccccc3)CCCC2C1c1ccccc1` (stereo not drawn), the half-maximal activity concentration (AC50) in [4] and in test [7] was 17.8 µM (inconclusive) each time.
On to `Cc1ccc(Nc2nc(Cl)c(C=O)s2)cc1Cl`, for which the half-maximal cytotoxic concentration (CC50) in test [1] is 19.2 µM (active).
For `CC(Oc1ccc2c3c(c(=O)oc2c1)CCCC3)C(=O)NCC(O)c1ccccc1` (stereo not drawn), the EC50 in [8] is on record as > 350 µM (not active).
Consider `CCOC(=O)c1c(C)[nH]c(C(=O)/C(C#N)=C/c2ccc(OC)c(OC)c2)c1C`, for which the CC50 in test [1] is > 50 µM (active).
Regarding `CC(C)C(NC(=O)C1CCCCC1)C(=O)NC1CCN(Cc2ccccc2)CC1` (stereo not drawn), in [7], the AC50 was 3.55 µM (inconclusive).
Take `CCN1C=C(Cc2ccccc2C)C2=C(C1)C(c1ccccc1C)C(C#N)=C(N)O2` (stereo not drawn): the CC50 in test [1] was 13.1 µM (active).
Same read-out and setting: as for `COc1ccc(-c2nc3n(c2Br)CCC3)cc1`, the figure is 30.9 µM (active); as for `CCOc1ccc(CNc2ccc(CNc3nc[nH]n3)cc2)cc1`, 18 µM (active).
On to `O=C(CSc1ncccn1)Nc1ccc(S(=O)(=O)N2CCCCC2)cc1`, for which the concentration at half-maximal activity (AC50) in test [5] and in [7] was 25.1 µM (inconclusive) throughout.
For `C=CCn1c(SCC(=O)Nc2ncc(Cc3ccc(Br)cc3)s2)nnc1-c1ccncc1`, in [7], the concentration at half-maximal activity (AC50) was 2.82 µM (inconclusive).
`COc1ccc(NC(=O)CSc2nc3cc[nH]cc-3n2)c(OC)c1`: the CC50 in test [1] is 33.1 µM (active).
Take `Cc1ccc(NC(=O)C2CC(=O)n3c(nc4ccccc43)N2)cc1` (stereo not drawn): the results for the half-maximal activity concentration (AC50) in test [9], in test [5] and in test [7] were 0.0355 µM (inconclusive), 17.8 µM (inconclusive) and 6.31 µM (inconclusive), respectively.
For `COc1cc(C(=O)NCC(c2cccnc2)N2CCN(C)CC2)cc(OC)c1OC` (stereo not drawn), the AC50 in [7] is 39.8 µM (inconclusive).
On to `N#Cc1cccc(-c2ccc3ncnc(NCc4ccccc4)c3c2)c1`, for which the results for the half-maximal activity concentration (AC50) in test [9], in [5] and in test [6] were 0.631 µM (inconclusive), 15.8 µM (inconclusive) and 10 µM (inconclusive), respectively.
With `COC(=O)Cn1c(C(=O)N(C)C)cc2c1C[C@H]1CN(C(=O)c3ccccc3)[C@@](Cc3ccc(OC)cc3)(C(=O)OC)[C@@H]21`, the AC50 in test [9] was 12.6 µM (inconclusive); in [7], 20 µM (inconclusive).
Regarding `COc1ccc(OC)c(N2C(=O)C(Cl)=C(N3CCCCC3)C2=O)c1`, the concentration at half-maximal activity (AC50) in test [2] was 11.8 µM (active). In test [3], the concentration for a half-maximal effect (EC50) was 4.67 µM (active).
Consider `Cc1ccc(NC(=O)CN2C(=O)NC(C)(c3ccc(Cl)cc3)C2=O)c(Br)c1` (stereo not drawn), for which the 50% cytotoxic concentration (CC50) in test [1] is 30.1 µM (active).
For the molecule `O=C(CN1C(=O)NC2(CCCCCC2)C1=O)N1CCN(S(=O)(=O)c2ccc(Cl)cc2)CC1`, the concentration at half-maximal activity (AC50) in [9] is 17.8 µM (inconclusive); in test [7], 20 µM (inconclusive).
For `Cc1n[nH]c2c1C(c1ccsc1C)C(C#N)=C(N)O2` (stereo not drawn), in test [2], the concentration at half-maximal activity (AC50) is 10.1 µM (active). The half-maximal effective concentration (EC50) in [3] was 3.77 µM (active).
As for `O=C1c2[nH]nc(-c3ccccc3O)c2C(c2cccc(Cl)c2)N1Cc1ccco1` (stereo not drawn), in test [2], the AC50 was 66.5 µM (active). The 50% effective concentration (EC50) in test [3] is > 380 µM (inconclusive); in test [10], 15.8 µM (active).
Consider `Cc1ccc(-n2nnc3c(SCC(=O)NCC4CCCO4)ncnc32)cc1` (stereo not drawn), for which, in [2], the AC50 is 4.72 µM (active). In test [3], the EC50 is 4.23 µM (active).
The matching figures for `O=C(CCl)Nc1ccc(N=Nc2ccccc2)cc1`: 6.81 µM (active) and 2.18 µM (active).
For the molecule `COc1ccc(-n2c(C)cc(C=O)c2C)cc1Cl`, the half-maximal activity concentration (AC50) in test [9] was 17.8 µM (inconclusive); in test [4], 14.1 µM (inconclusive); in [7] it was 3.98 µM (inconclusive).
As for `Cc1n[nH]c2c1C(c1cccc(OC(=O)N3CCOCC3)c1)C(C#N)=C(N)O2` (stereo not drawn), the AC50 in test [2] was 31.2 µM (active). In addition, in test [3], the concentration giving a half-maximal response (EC50) was 7.44 µM (active).
Consider `CCc1cc2c(c(CC)n1)CCC(=O)N2Cc1ccc(-c2ccccc2-c2nnn[nH]2)cc1`, for which the concentration at half-maximal activity (AC50) in test [9] was 25.1 µM (inconclusive); in test [5], 20 µM (inconclusive); in test [6], 10 µM (inconclusive).
`O=c1c(-c2cccs2)nc2cnc(Oc3ccccc3)nc2n1C1CC1`: the AC50 in [7] was 1.58 µM (inconclusive).
With `COc1ccc(C2C(C#N)=C(N)Oc3[nH]nc(C)c32)cc1Cn1nnc2ccccc21` (stereo not drawn), the AC50 in test [2] is 7.76 µM (active). In addition, the concentration giving a half-maximal response (EC50) in [3] is 3.87 µM (active).
With `CCOC(=O)CN1C(=O)N[C@@H](c2cccc(C(F)(F)F)c2)C(C(C)=O)=C1C`, in test [2], the AC50 was > 380 µM (inactive). Further, the EC50 in test [3] was > 380 µM (inactive).
`N#CCCn1[nH]c(-c2ccccc2)cc1=O`: in test [2], the concentration at half-maximal activity (AC50) is 5.47 µM (active). For the same molecule, in test [3], the EC50 is 3.32 µM (active).
For the molecule `O=C(c1ccccc1)N1CCCC(c2ccc(Cl)cc2)=N1`, in test [1], the CC50 was 42.4 µM (active).
